Molecular target: neuraminidase of Oseltamivir resistant virus of A/Vladivostok/16/09 (H1N1) influenza (Influenza A virus, UniProt C3W5S3)

CCC(CC)O[C@@H]1C=C(C(=O)O)C[C@H](NC(=N)N)[C@H]1NC(=O)CF [1.1, (3R,4R,5S)-5-guanidino-4-fluoroacetamido-3-(pentan-3-yloxy)cyclohex-1-enecarboxylic acid]
more active than A2 by factor: 207 | more active than A4 by factor: 250

CCC(CC)O[C@@H]1C=C(C(=O)O)C[C@H](NC(=N)N)[C@H]1NC(=O)C(F)F [1.4, (3R,4R,5S)-5-guanidino-4-difluoroacetamido-3-(pentan-3-yloxy)cyclohex-1-enecarboxylic acid]
more active than A2 by factor: 118 | more active than A4 by factor: 140

Reference: patent US8895613B2 (priority 2013, dated 2014)
